Experiment: gradient 5% acetonitrile 3 min, to 50% in 2 min, to 85% in 15 min, held 3 min, 100 µL/min
Conditions: column: Zorbax Extend-C18 2.1 x 50 mm; eluents: water / acetonitrile, 0.1% formic acid
In short: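 Pure standards were run in mixtures of ~100 molecules by HPLC coupled to a quadrupole time-of-flight mass spectrometer. The column was a Zorbax Extend-C18 (2.1 × 50 mm, 1.8 μm) at 100 μL/min, with water and acetonitrile each containing 0.1% formic acid, in positive and negative ionization mode. Dead and dwell volumes were 40 μL and 900 μL. Retention time was taken from computationally picked adduct peaks, each manually inspected, with data collected over 3 months.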

RP-LC retention time	Compound
683 s	COc1cccc2c(SCc3ccccn3)nccc12
765 s	Cn1nc(C(=O)NCc2ccc3c(c2)OCO3)c2c1CCN(C(=O)COc1ccc(F)cc1)C2
861 s	CCNC(=O)C1CCN(c2nc3ccc(-c4ccc(F)cc4)nc3s2)CC1
850 s	O=C(COc1ccc(F)cc1)NCC(=O)N1CCCc2ccccc21
774 s	O=C(Cc1csc2nc(-c3ccccc3)cn12)Nc1ccc(F)cc1
1030 s	COc1ccc(-c2csc(NC(=O)c3cc(OC)c(OC)c(OC)c3)n2)cc1
905 s	COc1cc(F)ccc1-c1ccnc2nc(Cc3ccc(F)cc3)nn12
641 s	COc1ccc(-c2cc3c(=O)n(CC(=O)N4CCN(c5ccccn5)CC4)ncn3n2)cc1
772 s	CC1(C(=O)NCc2ccc(F)cc2)Cn2cnc(C(=O)NCCc3ccccc3)c2C(=O)N1C1CC1 (centres undefined)
746 s	O=C(NCc1ccccc1)C1CCCN(C(=O)C2Sc3ccccc3NC2=O)C1 (centres undefined)
873 s	Cc1ccc(CN2CCN(C3CCN(S(=O)(=O)c4cccc(C)c4)CC3)C(=O)C2=O)cc1
709 s	COc1ccc(S(=O)(=O)NCCc2noc(C)n2)cc1
702 s	COc1cccc(CNC(=O)[C@@H]2[C@H](c3cc(OC)c(OC)c(OC)c3)c3cc4c(cc3[C@H](O)[C@H]2CO)OCO4)c1OC
863 s	COCCCNC(=O)C1CCCN(c2ncc(-c3cccc(F)c3)cn2)C1 (centres undefined)
750 s	Cc1cc(C(=O)NCC2CCN(C(=O)Nc3ccc(F)cc3)CC2)c(C)o1
1070 s	CCCN1C(=O)COc2ccc(-c3csc(NC(=O)CCc4ccccc4)n3)cc21
582 s	Cc1noc([C@@H]2CC(F)(F)CN2C(=O)c2cnc[nH]2)n1
957 s	O=C(NCc1csc(-c2cccs2)n1)C1CCN(S(=O)(=O)c2ccc(Cl)s2)CC1
650 s	CC1=C(c2ccccc2)S(=O)(=O)N=C1N1CCC(NC(=O)C2CCOC2)CC1 (centres undefined)
858 s	CCN1c2cc(Cl)ccc2C(=O)NC12CCN(C(=O)Nc1ccccc1OC)CC2
995 s	Cc1ccc(-c2ncc(C(=O)Nc3cc(C)ccc3F)c(-c3ccncc3)n2)cc1
987 s	CCn1c(=O)c(N2CCN(C(=O)Nc3ccccc3Cl)CC2)nc2ccccc21
658 s	COc1cccc(CNC(=O)Nc2c(-c3ccc(C)cc3)nc3ccccn23)c1

RP-LC retention time	Compound
667 s	COc1ccc(NC(=O)N2CC(c3nc(C(C)C)nn3C)C2)c(OC)c1
1000 s	CCOc1ccc(S(=O)(=O)N2CCc3c(c(-c4nnc(-c5ccc(F)cc5)o4)nn3C)C2)cc1
1130 s	CCn1nnc(NCc2ccc(-c3ccc(Cl)cc3Cl)o2)n1
726 s	CNC(=O)c1sc(-c2ccccc2)nc1C
704 s	Cc1ccc(S(=O)(=O)N2CCC(n3cnnc3C)CC2)cc1C
868 s	O=C(NCCOc1ccccc1)c1cccc(Br)c1
968 s	Cc1cc(C)cc(NC(=O)CN2C(=O)C(C)(C)c3ccccc32)c1
874 s	O=C(NCc1csc(-c2ccccc2)n1)[C@H]1CCCN1C(=O)Nc1ccc(Br)cc1
1140 s	Cc1ccc2c(c1)OCC(=O)N2Cc1nc(-c2ccc(Cl)cc2)no1
648 s	CCOCC(=O)N(C)CCc1noc(-c2ccc(C(=O)N3CCCC3)cc2)n1
718 s	O=C(NCc1csc(C2CCCN(C(=O)COc3ccccc3)C2)n1)C1CC1 (centres undefined)
863 s	Cc1cc(=O)n(CC(=O)NCc2ccc(F)c(Cl)c2)c(N)n1
871 s	O=C(NCCn1ccc2ccccc21)C(=O)c1cn(CC(=O)N2CCOCC2)c2ccccc12
932 s	CC(C)Cn1cc(S(=O)(=O)NCc2ccccc2F)c2cccnc21
961 s	Fc1ccc(-c2nc3cnc(Br)cn3c2Nc2ccc3c(c2)OCCO3)cc1
698 s	CCOC(=O)c1c(CN2CCOCC2)n(C)c2cc(Br)c(OC)cc12
979 s	O=C(CSc1ncccc1-c1noc(C2CCC2)n1)N1CCCCC1
626 s	CCN(CC)CCCn1c(C)cc2c(c1=O)C(c1ccccc1OC)C(C#N)=C(N)O2 (centres undefined)
842 s	COc1ccc(C2(CNS(=O)(=O)c3ccc(OC)c(Cl)c3)CCOCC2)cc1
589 s	COc1ccc2[nH]c(=O)c(CCC(=O)NCCCN3CCCCC3C)cc2c1 (centres undefined)
871 s	COc1ccc(/C=C/c2nc(Cn3c(C)nc4ccccc4c3=O)no2)cc1
702 s	COc1cc(NC(=O)[C@@H]2COCC(=O)N2Cc2ccc(OC)cc2OC)cc(OC)c1
1010 s	O=C(Nc1ccc(F)c(Cl)c1)N1CCc2nc(-c3ccccc3)ncc2C1

RP-LC retention time	Compound
1200 s	Cc1ccccc1-c1noc(Cn2c(=O)n(Cc3ccccc3Cl)c(=O)c3sccc32)n1
693 s	COc1ccc(OC)c(CNC(=O)CCc2c(-c3ccc(Br)cc3)nc3ccccn23)c1
931 s	O=C(NCCc1cccs1)c1ccc2ccnc(N3CCN(c4ccc(Cl)cc4)CC3)c2c1
821 s	O=C(Nc1cnn(-c2ncncc2N2CCCCC2)c1)C1CCCCC1
887 s	Cc1ccc(N2C=C(C(=O)N3CCOCC3)S(=O)(=O)c3ccc(F)cc32)cc1C
578 s	CN(C)C1(CC2CC2)CCN(C(=O)c2ccsc2)CC1
582 s	CCN1CCN(c2ncc(N3CCC(C(=O)NCC(C)C)CC3)cn2)CC1
764 s	CC(NC(=O)C(C)n1c2ccccc2c2cnn(C)c(=O)c21)C(=O)N1CCCCC1 (centres undefined)
1030 s	CCOc1ccc(-c2cn3ccn(-c4ccc(C(C)C)cc4)c(=O)c3n2)cc1
640 s	Cc1ccc(CN2CCc3nc(N4CCCC4)ncc3C2)cc1C
641 s	Cc1nn(C)cc1S(=O)(=O)Nc1ccc2c(c1)OCCO2
766 s	CN1C(=O)Cc2cc(C(=O)NCc3ccc(F)c(Cl)c3)ccc21
986 s	CC(=O)Nc1ccc(NC(=S)NC(=O)c2ccc(C(C)(C)C)cc2)cc1
1060 s	O=C1NC(=O)c2c(NC(=O)C3(c4ccc(Cl)cc4)CCCC3)cccc21
733 s	Cc1ccc(CNC2=NCCNC23CCN(S(=O)(=O)c2ccc(F)cc2)CC3)cc1
775 s	CCOc1ccc(OCC)c(NC(=O)C2CCCN(C(=O)c3cc(-c4ccccn4)n[nH]3)C2)c1 (centres undefined)
962 s	CCCn1cc(CCNS(=O)(=O)c2c(C)cc(C)cc2C)c2cccnc21
1010 s	CCOC(=O)c1noc2ncnc(Nc3ccc(C)cc3)c12
792 s	O=C(CN1C(=O)CCc2cc(Br)ccc21)Nc1ccc2c(c1)OCO2
995 s	O=C(CN1C(=O)CCCc2cc(S(=O)(=O)N3CCCCC3)ccc21)Nc1ccc(Cl)cc1F
616 s	CC(C)Oc1ccccc1CN1C[C@@H]2C(=O)N(C)C(=O)[C@@H]2C1
664 s	Cc1ccccc1N1CCn2c1nc1c2c(=O)n(CC(=O)O)c(=O)n1C
555 s	Cc1ccc2c(Nc3ccccc3F)c(C(=O)N3CCCC3)cnc2n1

RP-LC retention time	Compound
658 s	O=C(Cn1cnc2nc(N3CCOCC3)ncc2c1=O)Nc1ccc2c(c1)OCCO2
853 s	COc1ccc(-c2cc(=O)n3c4ccccc4n(CC(=O)NC(C)C)c3n2)cc1
924 s	Cn1nnc2ccc(-c3noc(COc4ccc(F)cc4)n3)cc21
581 s	Cc1ccccc1Cn1cc(-c2ccncc2)cc1C(=O)NCc1cccnc1
688 s	COc1ccccc1CC(=O)NC1CCN(c2cc(-c3ccccc3)[nH]n2)C1 (centres undefined)
872 s	Cn1c(=O)n(C)c2cc(N3CCCCC3)c(NC(=O)c3ccco3)cc21
823 s	CCN(CC)c1nc2ccsc2c(=O)n1CCC(=O)NCc1ccccc1F
649 s	CN1CCCCCCN(C(=O)c2cnccn2)[C@H]2CCC[C@H]2C1=O
755 s	Cc1ccccc1NS(=O)(=O)c1cc(-c2[nH]ncc2C(=O)N2CCCCC2)oc1C
843 s	O=C(NCC1CC1)c1cn(-c2ccc(-c3nc(C4CC4)no3)cn2)cn1
763 s	Cc1ccc(NC(=O)N2CCCN(c3ccc(=O)n(-c4ccccc4)n3)CC2)c(C)c1
616 s	COC(=O)NCc1nnnn1-c1ccc(OC)cc1
648 s	Cc1cc2n(n1)CCC(=O)N2CCCC(=O)NCCc1cccs1
980 s	COc1ccccc1C(=O)Nc1cc(-c2ccccn2)no1
555 s	CN(CCc1ccccn1)C(=O)c1cccc(N2CCNC(c3ccccc3)C2)n1 (centres undefined)
661 s	CNC(=O)C1CCCN(c2nc3ncn(CC(=O)Nc4c(C)cccc4C)c(=O)c3s2)C1 (centres undefined)
605 s	Cc1cccc(CN2CC(n3cc(COc4ccc(F)cc4)nn3)C2)c1
868 s	CCc1ccc(N2C(=O)CN(S(=O)(=O)CC)CC2(C)C(=O)NCc2ccccc2)cc1 (centres undefined)
1170 s	COc1ccccc1-c1nc(Cn2nnc(-c3nc(-c4ccc(C)cc4)no3)c2C)c(C)o1
804 s	Cc1cc(C2CCCN2C(=O)Cc2ccccc2Cl)no1 (centres undefined)
